Literature values as cited in patent US9427419B2, “Compositions comprising dimethyl sulfoxide (DMSO)” (Abela Pharmaceuticals, Inc., priority 2005, dated 2016).

Tests used:
[1] = doses of 250 mg/Kg
cerebral blood flow = conditions: variety of brain injuries including stroke and head trauma, animals and humans
[2] = tested on: asymmetric dimethylarginine (ADMA); conditions: continuous intravenous infusion for 120 minutes at 0.125 g/min, angina pectoris
[3] = higher doses, from 15 to 30 grams daily
[4] = after oral administration
[5] = tested on: cerebral blood flow, contused brain; conditions: mice, after experimental traumatic injury
endothelin-1 = conditions: continuous intravenous infusion for 120 minutes at 0.125 g/min, angina pectoris

N[C@@H](CC(=O)O)C(=O)O [L-aspartate]
adverse effects [1]: without adverse effects

C[S+](C)[O-] [DMSO, dimethyl sulfoxide]
cerebral blood flow (CBF) (cerebral blood flow): increase CBF
excitotoxic death of the neurons induced by glutamate (hippocampal neurons): can prevent excitotoxic death
glutamate responses in hippocampal neurons (hippocampal neurons; DMSO concentrations 0.5-[…]): inhibit glutamate responses
electrophysiological responses and calcium influx induced by glutamate, NMDA and AMPA (hippocampal neurons; rapidly reversible manner): suppresses

NCCCC[C@H](N)C(=O)O [L-lysine]
adverse effects [1]: without adverse effects

N=C(N)NCCC[C@H](N)C(=O)O [L-arginine]
serum levels of asymmetric dimethylarginine (ADMA) [2]: lowered the serum levels of asymmetric dimethylarginine (ADMA)
most common adverse reactions [3]: nausea, abdominal cramps and diarrhea
time of peak plasma levels [4]: 1 to 2 h
cerebral blood flow (CBF) post-injury [5]: increased CBF post-injury
contusion volume [5]: reduction in contusion volume
levels of endothelin-1 (endothelin-1): reduce the levels of endothelin-1
